In ChEMBL document CHEMBL2177034, “Inhibition of hypoxia inducible factor-2 transcription: isolation of active modulators from marine sponges” (J Nat Prod, 2012):
Active and inactive are the calls of the source. No cut-off for these calls is given here.

Key:
[1] = target: T1, Endothelial PAS domain-containing protein 1 (Homo sapiens, UniProt Q99814); assay: Inhibition of HIF2alpha in human 786-0 cells expressing truncated HIF1alpha assessed as reduction in luciferase activity after 24 hrs by reporter gene assay; type: cell-based
786-0 [2] = assay: Downregulation of HIF1alpha mRNA expression in human 786-0 cells at 20 uM after 48 hrs by RT-PCR analysis; type: functional, cell-based
[3] = target: T1, Endothelial PAS domain-containing protein 1; assay: Inhibition of HIF2alpha in human 786-0 cells assessed as reduction in VEGFA mRNA expression at 20 uM after 48 hrs by RT-PCR analysis; type: cell-based
[4] = target: T1, Endothelial PAS domain-containing protein 1; assay: Inhibition of HIF2alpha in human 786-0 cells assessed as reduction in CCND1 mRNA expression at 20 uM after 48 hrs by RT-PCR analysis; type: cell-based
[5] = target: T1, Endothelial PAS domain-containing protein 1; assay: Inhibition of HIF2alpha in human 786-0 cells assessed as reduction in GLUT1 mRNA expression at 20 uM after 48 hrs by RT-PCR analysis; type: cell-based
[6] = target: T1, Endothelial PAS domain-containing protein 1; assay: Inhibition of HIF2alpha in human 786-0 cells assessed as reduction in TGFalpha mRNA expression at 20 uM after 48 hrs by RT-PCR analysis; type: cell-based
[7] = Cytotoxicity against human SK-RC-28 cells expressing HIF1alpha after 2 days by XTT assay; type: functional, cell-based; settings: 48 h
[8] = Cytotoxicity against human RCC4 cells expressing HIF2alpha and HIF1alpha after 2 days by XTT assay; type: functional, cell-based; settings: RCC4, 48 h
786-0 [9] = assay: Cytotoxicity against human 786-0 cells expressing HIF2alpha after 2 days by XTT assay; type: functional, cell-based; settings: 786-0, 48 h
786-0 [10] = assay: Inhibition of total protein expression in serum deprived human 786-0 cells at 20 uM after 48 hrs relative to control; type: cell-based; settings: 786-0, 48 h, 20 µM
786-0 [11] = assay: Inhibition of HIF-mediated VEGFA protein expression in serum deprived human 786-0 cells at 20 uM after 48 hrs relative to control; type: cell-based
[12] = target: Hypoxia-inducible factor 1-alpha (Homo sapiens) (UniProt Q16665); assay: Induction of HIF1alpha in human RCC4 cells assessed as increase in […] 9 expression at 20 uM after 48 hrs by RT-PCR analysis relative to control; type: cell-based
[13] = target: Hypoxia-inducible factor 1-alpha (Homo sapiens) (UniProt Q16665); assay: Inhibition of HIF1alpha in human SK-RC-28 cells assessed as reduction in VEGFA expression at 20 uM after 48 hrs by RT-PCR analysis; type: cell-based
[14] = target: Hypoxia-inducible factor 1-alpha (Homo sapiens) (UniProt Q16665); assay: Inhibition of HIF1alpha in human SK-RC-28 cells assessed as reduction in carbonic anhydrase expression at 20 uM after 48 hrs by RT-PCR analysis; type: cell-based
[15] = Downregulation of HIF2alpha mRNA expression in human SK-RC-28 cells at 20 uM after 48 hrs by RT-PCR analysis; type: functional, cell-based
[16] = Downregulation of HIF1alpha mRNA expression in human SK-RC-28 cells at 20 uM after 48 hrs by RT-PCR analysis; type: functional, cell-based
[17] = Downregulation of CCND1 mRNA expression in human SK-RC-28 cells at 20 uM after 48 hrs by RT-PCR analysis; type: functional, cell-based
[18] = Downregulation of GLUT1 mRNA expression in human SK-RC-28 cells at 20 uM after 48 hrs by RT-PCR analysis; type: functional, cell-based
[19] = Downregulation of TGFalpha mRNA expression in human SK-RC-28 cells at 20 uM after 48 hrs by RT-PCR analysis; type: functional, cell-based
[20] = Downregulation of HIF2alpha mRNA expression in human RCC4 cells at 20 uM after 48 hrs by RT-PCR analysis; type: functional, cell-based
[21] = Downregulation of HIF1alpha mRNA expression in human RCC4 cells at 20 uM after 48 hrs by RT-PCR analysis; type: functional, cell-based
[22] = target: T2, Hypoxia inducible factors; HIF-1-alpha, HIF-2-alpha (Homo sapiens) (UniProt Q16665+Q99814); assay: Inhibition of HIF1alpha/2alpha in human RCC4 cells assessed as reduction in VEGFA mRNA expression at 20 uM after 48 hrs by RT-PCR analysis; type: cell-based
[23] = target: T1, Endothelial PAS domain-containing protein 1; assay: Inhibition of HIF2alpha in human RCC4 cells coexpressing HIF1alpha assessed as reduction in CCND1 mRNA expression at 20 uM after 48 hrs by RT-PCR analysis; type: cell-based
[24] = target: T1, Endothelial PAS domain-containing protein 1; assay: Inhibition of HIF2alpha in human RCC4 cells coexpressing HIF1alpha assessed as reduction in GLUT1 mRNA expression at 20 uM after 48 hrs by RT-PCR analysis; type: cell-based
[25] = target: T1, Endothelial PAS domain-containing protein 1; assay: Inhibition of HIF2alpha in human RCC4 cells coexpressing HIF1alpha assessed as reduction in TGFalpha mRNA expression at 20 uM after 48 hrs by RT-PCR analysis; type: cell-based
786-0 [26] = assay: Downregulation of HIF2alpha mRNA expression in human 786-0 cells at 20 uM after 48 hrs by RT-PCR analysis; type: functional, cell-based
786-0 [27] = assay: Inhibition of HIF-mediated VEGFA protein expression in serum deprived human 786-0 cells at 1 uM after 48 hrs relative to control; type: cell-based
[28] = Downregulation of HIF2alpha mRNA expression in human SK-RC-28 cells at 1 uM after 48 hrs by RT-PCR analysis; type: functional, cell-based
[29] = Downregulation of HIF1alpha mRNA expression in human SK-RC-28 cells at 1 uM after 48 hrs by RT-PCR analysis; type: functional, cell-based
[30] = Downregulation of CCND1 mRNA expression in human SK-RC-28 cells at 1 uM after 48 hrs by RT-PCR analysis; type: functional, cell-based
[31] = Downregulation of GLUT1 mRNA expression in human SK-RC-28 cells at 1 uM after 48 hrs by RT-PCR analysis; type: functional, cell-based
[32] = Downregulation of TGFalpha mRNA expression in human SK-RC-28 cells at 1 uM after 48 hrs by RT-PCR analysis; type: functional, cell-based
[33] = target: Hypoxia-inducible factor 1-alpha (Homo sapiens) (UniProt Q16665); assay: Inhibition of HIF1alpha in human SK-RC-28 cells assessed as reduction in VEGFA at 1 uM after 48 hrs by RT-PCR analysis; type: cell-based
[34] = target: Hypoxia-inducible factor 1-alpha (Homo sapiens) (UniProt Q16665); assay: Inhibition of HIF1alpha in human SK-RC-28 cells assessed as reduction in carbonic anhydrase 9 expression at 1 uM after 48 hrs by RT-PCR analysis; type: cell-based
[35] = Downregulation of HIF2alpha mRNA expression in human RCC4 cells at 1 uM after 48 hrs by RT-PCR analysis; type: functional, cell-based
[36] = Downregulation of HIF1alpha mRNA expression in human RCC4 cells at 1 uM after 48 hrs by RT-PCR analysis; type: functional, cell-based
[37] = target: T2, Hypoxia inducible factors; HIF-1-alpha, HIF-2-alpha (Homo sapiens); assay: Inhibition of HIF1alpha/2alpha in human RCC4 cells assessed as reduction in VEGFA mRNA expression at 1 uM after 48 hrs by RT-PCR analysis; type: cell-based
[38] = target: T1, Endothelial PAS domain-containing protein 1; assay: Inhibition of HIF2alpha in human RCC4 cells coexpressing HIF1alpha assessed as reduction in CCND1 mRNA expression at 1 uM after 48 hrs by RT-PCR analysis; type: cell-based
[39] = target: T1, Endothelial PAS domain-containing protein 1; assay: Inhibition of HIF2alpha in human RCC4 cells coexpressing HIF1alpha assessed as reduction in GLUT1 mRNA expression at 1 uM after 48 hrs by RT-PCR analysis; type: cell-based
[40] = target: T1, Endothelial PAS domain-containing protein 1; assay: Inhibition of HIF2alpha in human RCC4 cells coexpressing HIF1alpha assessed as reduction in TGFalpha mRNA expression at 1 uM after 48 hrs by RT-PCR analysis; type: cell-based
[41] = target: Hypoxia-inducible factor 1-alpha (Homo sapiens) (UniProt Q16665); assay: Inhibition of HIF1alpha in human RCC4 cells coexpressing HIF2alpha assessed as decrease in carbonic anhydrase 9 mRNA expression at 1 uM after 48 hrs by RT-PCR analysis; type: cell-based
786-0 [42] = assay: Downregulation of HIF2alpha mRNA expression in human 786-0 cells at 1 uM after 48 hrs by RT-PCR analysis; type: functional, cell-based
786-0 [43] = assay: Downregulation of HIF1alpha mRNA expression in human 786-0 cells at 1 uM after 48 hrs by RT-PCR analysis; type: functional, cell-based
[44] = target: T1, Endothelial PAS domain-containing protein 1; assay: Inhibition of HIF2alpha in human 786-0 cells assessed as reduction in VEGFA at 1 uM after 48 hrs by RT-PCR analysis; type: cell-based
[45] = target: T1, Endothelial PAS domain-containing protein 1; assay: Inhibition of HIF2alpha in human 786-0 cells assessed as reduction in CCND1 mRNA expression at 1 uM after 48 hrs by RT-PCR analysis; type: cell-based
[46] = target: T1, Endothelial PAS domain-containing protein 1; assay: Inhibition of HIF2alpha in human 786-0 cells assessed as reduction in GLUT1 mRNA expression at 1 uM after 48 hrs by RT-PCR analysis; type: cell-based
[47] = target: T1, Endothelial PAS domain-containing protein 1; assay: Inhibition of HIF2alpha in human 786-0 cells assessed as reduction in TGFalpha mRNA expression at 1 uM after 48 hrs by RT-PCR analysis; type: cell-based
786-0 [48] = assay: Down regulation of carbonic anhydrase 9 expression in human 786-0 cells at 1 uM after 48 hrs by RT-PCR analysis; type: functional, cell-based

T1 sequence (Q99814 whole entry, the tested form may be a part): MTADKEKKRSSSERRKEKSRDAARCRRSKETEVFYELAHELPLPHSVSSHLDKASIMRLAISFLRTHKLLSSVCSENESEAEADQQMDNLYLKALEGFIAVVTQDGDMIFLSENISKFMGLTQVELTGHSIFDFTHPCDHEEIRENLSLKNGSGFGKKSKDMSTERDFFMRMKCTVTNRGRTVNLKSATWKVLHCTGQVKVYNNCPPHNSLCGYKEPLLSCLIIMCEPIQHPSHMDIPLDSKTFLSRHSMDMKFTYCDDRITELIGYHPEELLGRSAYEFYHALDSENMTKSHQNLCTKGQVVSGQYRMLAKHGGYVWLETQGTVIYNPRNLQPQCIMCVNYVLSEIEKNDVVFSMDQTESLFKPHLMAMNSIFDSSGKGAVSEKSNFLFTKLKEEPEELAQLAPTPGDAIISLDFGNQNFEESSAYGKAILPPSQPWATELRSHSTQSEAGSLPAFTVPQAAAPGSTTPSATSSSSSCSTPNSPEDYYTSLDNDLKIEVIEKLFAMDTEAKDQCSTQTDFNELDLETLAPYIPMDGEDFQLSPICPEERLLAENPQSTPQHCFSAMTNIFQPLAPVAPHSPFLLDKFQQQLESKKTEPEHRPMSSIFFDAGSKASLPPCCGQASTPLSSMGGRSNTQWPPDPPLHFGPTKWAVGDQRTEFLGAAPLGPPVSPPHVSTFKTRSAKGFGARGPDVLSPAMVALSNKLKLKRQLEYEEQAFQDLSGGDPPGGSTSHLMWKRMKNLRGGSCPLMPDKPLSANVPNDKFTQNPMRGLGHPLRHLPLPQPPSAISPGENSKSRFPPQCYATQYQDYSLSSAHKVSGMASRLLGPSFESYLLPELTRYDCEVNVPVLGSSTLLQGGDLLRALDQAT
Hypoxia-inducible factor 1-alpha (Homo sapiens), sequence (Q16665 whole entry, looked up): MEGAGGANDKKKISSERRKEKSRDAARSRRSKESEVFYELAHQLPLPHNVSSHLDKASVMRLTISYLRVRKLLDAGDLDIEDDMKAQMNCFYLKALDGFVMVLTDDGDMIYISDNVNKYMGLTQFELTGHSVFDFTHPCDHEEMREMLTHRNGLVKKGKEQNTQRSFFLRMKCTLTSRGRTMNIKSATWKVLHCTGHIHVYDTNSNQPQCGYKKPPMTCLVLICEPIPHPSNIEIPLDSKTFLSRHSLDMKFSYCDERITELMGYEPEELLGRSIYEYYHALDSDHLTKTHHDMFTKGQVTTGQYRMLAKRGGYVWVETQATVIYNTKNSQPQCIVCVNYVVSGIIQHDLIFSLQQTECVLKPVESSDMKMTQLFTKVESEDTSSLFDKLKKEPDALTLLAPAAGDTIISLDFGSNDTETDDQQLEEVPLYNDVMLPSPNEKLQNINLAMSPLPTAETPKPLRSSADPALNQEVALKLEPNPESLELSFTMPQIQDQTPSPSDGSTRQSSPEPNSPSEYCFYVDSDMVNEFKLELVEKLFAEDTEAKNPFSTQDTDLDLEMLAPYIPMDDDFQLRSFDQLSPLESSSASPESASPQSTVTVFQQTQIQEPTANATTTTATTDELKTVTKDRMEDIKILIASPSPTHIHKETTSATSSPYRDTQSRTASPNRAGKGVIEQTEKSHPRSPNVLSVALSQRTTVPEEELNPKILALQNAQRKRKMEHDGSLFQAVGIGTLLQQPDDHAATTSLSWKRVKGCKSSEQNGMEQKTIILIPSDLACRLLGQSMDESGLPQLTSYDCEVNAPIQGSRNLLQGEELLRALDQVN

## CC(=O)O[C@@H]1OC=C2[C@@H](OC(C)=O)C[C@H]3[C@]4(C)CC[C@H]5C(C)(C)CCC[C@]5(C)[C@H]4C[C@@H](O)[C@]3(C)[C@H]21 [HETERONEMIN]
[1]
  EC50: 1.2 µM

## COC1=C(C)C(=O)c2cc(=O)n(C)c(C)c2C1=O [MIMOSAMYCIN]
[1]
  EC50: > 100 µM

## CC1(C)CCC[C@]2(C)[C@H]3C=C4C=C(O)C(=O)C=C4O[C@@]3(C)CC[C@@H]12 [PUUPEHENONE]
786-0 [2]
  Activity: Active
[3]
  inhibition: Active
[4]
  inhibition: Active
[5]
  inhibition: Active
[6]
  inhibition: Active
[7]
  IC50: 15.5 µM
[8]
  IC50: 18 µM
786-0 [9]
  IC50: 17.7 µM
786-0 [10]
  Activity: Toxic
786-0 [11]
  inhibition: Active
[1]
  EC50: 3.3 µM
[12]
  fold change (FC): 4
[13]
  inhibition: inactive
[14]
  inhibition: inactive
[15]
  Activity: inactive
[16]
  Activity: inactive
[17]
  Activity: inactive
[18]
  Activity: inactive
[19]
  Activity: inactive
[20]
  Activity: Active
[21]
  Activity: Active
[22]
  inhibition: Active
[23]
  inhibition: Active
[24]
  inhibition: Active
[25]
  inhibition: Active
786-0 [26]
  Activity: Active

## Nc1nccc(-c2c3c(O)ccnc3n3c(N)nccc23)n1 [VARIOLIN B]
[7]
  IC50: > 100 µM
[8]
  IC50: 8.8 µM
786-0 [9]
  IC50: > 100 µM
786-0 [27]
  inhibition: 50%
[1]
  EC50: 0.7 µM
[28]
  Activity: inactive
[29]
  Activity: inactive
[30]
  Activity: inactive
[31]
  Activity: inactive
[32]
  Activity: inactive
[33]
  inhibition: inactive
[34]
  inhibition: inactive
[35]
  Activity: inactive
[36]
  Activity: inactive
[37]
  inhibition: inactive
[38]
  inhibition: inactive
[39]
  inhibition: inactive
[40]
  inhibition: inactive
[41]
  inhibition: inactive
786-0 [42]
  Activity: inactive
786-0 [43]
  Activity: inactive
[44]
  inhibition: inactive
[45]
  inhibition: inactive
[46]
  inhibition: inactive
[47]
  inhibition: inactive
786-0 [48]
  Activity: inactive

## C[C@@]12CCCc3coc(c31)C(=O)c1cc3c(cc12)C(=O)C=CC3=O [XESTOQUINONE]
[1]
  EC50: > 100 µM
